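Method: 48-hour compound exposure of cells in 96-well plates, five concentrations, linear interpolation of endpoints. TGI is the concentration that stops growth completely.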 Where a SMILES comes first, the peptide text is derived from it. [ ]: non-standard residue; d: D form. The star is where a group is joined. ξ: configuration not given here. dThr(3ξ) = CC(O)[C@@H](N)C(=O)O; dNMeL = CN[C@H](CC(C)C)C(=O)O; OBn = c1ccc(CO*)cc1; ξLac = CC(O)C(=O)O
Legend:
Experiment in all cases: NCI-60 cell line screen, 48 h
CAKI-1 renal = tested on: CAKI-1 renal
DU-145 prostate = tested on: DU-145 prostate
HCT-116 colon = tested on: HCT-116 colon
HT29 colon = tested on: HT29 colon
IGROV1 ovarian = tested on: IGROV1 ovarian
LOX IMVI melanoma = tested on: LOX IMVI melanoma
MCF7 breast = tested on: MCF7 breast
MDA-MB-231 breast = tested on: MDA-MB-231 breast
NCI-H226 lung = tested on: NCI-H226 lung
NCI-H460 lung = tested on: NCI-H460 lung
OVCAR-8 ovarian = tested on: OVCAR-8 ovarian
PC-3 prostate = tested on: PC-3 prostate
SF-268 CNS = tested on: SF-268 CNS
SK-OV-3 ovarian = tested on: SK-OV-3 ovarian
SNB-19 CNS = tested on: SNB-19 CNS
SNB-75 CNS = tested on: SNB-75 CNS
SW-620 colon = tested on: SW-620 colon
T-47D breast = tested on: T-47D breast
TK-10 renal = tested on: TK-10 renal
UACC-257 melanoma = tested on: UACC-257 melanoma

| SMILES | TGI (CAKI-1 renal) [µM] | TGI (DU-145 prostate) [µM] | TGI (HCT-116 colon) [µM] | TGI (HT29 colon) [µM] | TGI (IGROV1 ovarian) [µM] | TGI (LOX IMVI melanoma) [µM] | TGI (MCF7 breast) [µM] | TGI (MDA-MB-231 breast) [µM] | TGI (NCI-H226 lung) [µM] | TGI (NCI-H460 lung) [µM] | TGI (OVCAR-8 ovarian) [µM] | TGI (PC-3 prostate) [µM] | TGI (SF-268 CNS) [µM] | TGI (SK-OV-3 ovarian) [µM] | TGI (SNB-19 CNS) [µM] | TGI (SNB-75 CNS) [µM] | TGI (SW-620 colon) [µM] | TGI (T-47D breast) [µM] | TGI (TK-10 renal) [µM] | TGI (UACC-257 melanoma) [µM] |
| --- | --- | --- | --- | --- | --- | --- | --- | --- | --- | --- | --- | --- | --- | --- | --- | --- | --- | --- | --- | --- |
| CC(=O)OC(C)[C@@H](NC(=O)[C@@H](CC(C)C)N(C)C(=O)[C@@H]1CCCN1C(=O)C(C)O)C(=O)OCc1ccccc1 (stereo not given in full) (H-[ξLac]P[dNMeL][dThr(3ξ)](Ac)-OBn) | > 100 | > 100 | > 100 | > 100 | > 100 | > 100 | > 100 | > 100 | > 100 | > 100 | > 100 | > 100 | > 100 | > 100 | > 100 | > 100 | > 100 | > 100 | > 100 | > 100 |
| COC(=O)C1Cc2cccc(C)c2C1 (stereo not given) | > 100 | > 100 | > 100 | > 100 | > 100 | > 100 | 71.6 | > 100 | > 100 | > 100 | > 100 | > 100 | > 100 | > 100 | > 100 | > 100 | > 100 | > 100 | > 100 | > 100 |
| COC(=O)C[C@@H]1C(C)(C)[C@@H]2O[C@@]34C[C@@H]2C(=O)[C@]1(C)[C@H]3CC[C@@]1(C)[C@H](c2ccoc2)OC(=O)C[C@]14O | > 100 | > 100 | > 100 | > 100 | > 100 | > 100 | > 100 | > 100 | > 100 | > 100 | > 100 | > 100 | > 100 | > 100 | > 100 | > 100 | > 100 | > 100 | > 100 | > 100 |
| COC(=O)c1ccc(N=NN(C)COc2ccc(C#N)cc2)cc1 | > 100 | > 100 | > 100 | > 100 | > 100 | > 100 | > 100 | > 100 | > 100 | > 100 | > 100 | > 100 | > 100 | > 100 | > 100 | > 100 | > 100 | > 100 | > 100 | > 100 |
| NS(=O)(=O)c1ccc(NNc2c3ccccc3nc3ccccc23)cc1 | 18.9 | 23.6 | 15.5 | 13.6 | 19.1 | 14.5 | 15.8 | 25.9 | 18.8 | 21.3 | 16.6 | 16.1 | 17.7 | 24.5 | 25.7 | 21.9 | 16.6 | 20.4 | 26.4 | 18 |
| Nc1ncnc2c1ncn2C1C=CC(CP(=O)(O)O)C1 (stereo not given) | > 100 | > 100 | > 100 | > 100 | > 100 | > 100 | > 100 | > 100 | > 100 | > 100 | > 100 | > 100 | > 100 | > 100 | > 100 | > 100 | > 100 | > 100 | > 100 | > 100 |
| COC(=O)C(=O)c1c2ccccc2n2ccc3c4ccccc4[nH]c3c12 | > 10 | > 10 | > 10 | > 10 | > 10 | > 10 | > 10 | > 10 | > 10 | > 10 | > 10 | > 10 | > 10 | > 10 | > 10 | > 10 | > 10 | > 10 | > 10 | > 10 |
| CN(CCCNC(=O)c1cn(C)c2c1ccc1cc(Cl)c(Cl)cc12)CCCNC(=O)c1cn(C)c2c1ccc1cc(Cl)c(Cl)cc12 | 27.1 | 31.6 | 31.2 | 29.4 | 25.5 | > 43.3 | 19.6 | 29.8 | 47.9 | 29.8 | 31.2 | 27.4 | 34 | 30.7 | 17.9 | 25.6 | 19.1 | 36.2 | 37.4 | 52.4 |
| Cc1ccc2c(c1)C(=O)C(Cc1ccccc1C(=O)O)C2 (stereo not given) | > 100 | > 100 | > 100 | > 100 | > 100 | > 100 | > 100 | > 100 | > 100 | > 100 | > 100 | > 100 | > 100 | > 100 | > 100 | > 100 | > 100 | > 100 | > 100 | > 100 |
| CN(c1ccccc1)S(=O)(=O)c1ccccc1[N+](=O)[O-] | > 100 | > 100 | > 100 | > 100 | > 100 | > 100 | > 100 | > 100 | > 100 | > 100 | > 100 | > 100 | > 100 | > 100 | > 100 | > 100 | > 100 | > 100 | > 100 | > 100 |
| Cc1cc2c(cc1Cl)SC(N/N=C(\N)c1ccc(Cl)cc1)=NS2(=O)=O | > 100 | > 100 | > 100 | > 100 | > 100 | > 100 | 64.7 | > 100 | > 100 | > 100 | > 100 | > 100 | > 100 | > 100 | > 100 | > 100 | > 100 | > 100 | > 100 | > 100 |
| N#Cc1c(-c2ccccc2)c(N=Nc2ccc(F)cc2)c(=O)n2c1[nH]c1ccccc12 | 16.4 | > 100 | 14.2 | 12 | 35.7 | > 100 | > 100 | > 50.9 | 39.1 | 19.9 | 24 | > 35.2 | 39.5 | 31.5 | 33.5 | 39.4 | > 100 | 40.8 | 25.8 | > 100 |
| CC(=O)CCNc1ccc(-c2cc(-c3ccc(N(C)C)cc3)nc3ccc4ccccc4c23)cc1 | > 100 | > 100 | > 100 | > 100 | > 100 | > 100 | > 100 | > 100 | > 78.9 | > 100 | > 100 | > 100 | > 100 | > 100 | > 100 | > 100 | > 100 | > 100 | > 100 | > 100 |
| CCCCOC(=O)C1CN2C=CC=NC2=NC1(C(F)(F)F)C(F)(F)F (stereo not given) | > 100 | > 100 | > 100 | > 100 | > 100 | > 100 | > 100 | > 100 | > 100 | > 100 | > 100 | > 100 | > 100 | > 100 | > 100 | > 100 | > 100 | > 100 | > 100 | > 100 |
| O=C1CCCC2=C(N1)C(=O)C=CC2=O | 49.6 | 31.2 | 49.1 | 59 | 57.2 | > 65.8 | 38.4 | 33.5 | > 68.5 | 63.8 | 64.2 | 29.9 | 67.9 | > 100 | 61 | 60 | 37.9 | 52.7 | 56.9 | 61.1 |
| O=c1[nH]c(-c2cccc(F)c2)nc2ccccc12 | > 100 | > 100 | > 57.7 | > 100 | > 100 | > 100 | > 100 | > 65.9 | > 100 | > 100 | > 93.1 | > 100 | > 100 | > 61.3 | 47.2 | 62.7 | > 100 | > 100 | 58.9 | > 100 |
| CCOC(=O)n1[nH]c(=O)n(-c2ccccc2)c1=O | > 100 | > 100 | > 100 | > 100 | > 100 | > 100 | > 100 | > 100 | > 100 | > 100 | > 100 | > 100 | > 100 | > 100 | > 100 | > 100 | > 100 | > 100 | > 100 | > 100 |
| CCOC(=O)C(Cc1c2ccccc2cc2ccccc12)(NC(C)=O)C(=O)OCC | > 100 | > 100 | > 100 | > 100 | > 100 | > 100 | > 100 | > 100 | > 100 | > 100 | > 100 | > 100 | > 100 | > 100 | > 100 | > 80.6 | > 100 | > 100 | > 100 | > 100 |

— PubChem BioAssay (NCI)
